Data: ChEMBL document CHEMBL1250486, “Synthesis and evaluation of fatty acyl ester derivatives of cytarabine as anti-leukemia agents” (2010)
The source made the active and inactive calls. No cut-off for these calls is given here.

Tests used:
CCRF-CEM [1] = assay: Antiproliferative activity against human CCRF-CEM cells at 1 uM after 96 hrs; format: functional
CCRF-CEM [2] = assay: Antiproliferative activity against human CCRF-CEM cells at 1 uM after 24 hrs; format: functional, cell-based

## CCSCCCCCCCCCCCC(=O)OC[C@H]1O[C@@H](n2ccc(N)nc2=O)[C@@H](O)[C@@H]1O
CCRF-CEM [1]
  Activity: inactive

## CCCCCCCCCCCCCC(=O)O[C@H]1[C@H](O)[C@@H](CO)O[C@H]1n1ccc(N)nc1=O
CCRF-CEM [2]
  Activity: Active
CCRF-CEM [1]
  Activity: 36%

## CCCCCCCCCCCCCC(=O)OC[C@H]1O[C@@H](n2ccc(N)nc2=O)[C@@H](O)[C@@H]1O
CCRF-CEM [1]
  Activity: inactive

## CCSCCCCCCCCCCCC(=O)O[C@H]1[C@H](O)[C@@H](CO)O[C@H]1n1ccc(N)nc1=O
CCRF-CEM [2]
  Activity: Active
CCRF-CEM [1]
  Activity: 36%

## CCCCCCCCCCCCCC(=O)OC[C@H]1O[C@@H](n2ccc(N)nc2=O)[C@@H](OC(=O)CCCCCCCCCCCCC)[C@@H]1O
CCRF-CEM [2]
  Activity: Active
CCRF-CEM [1]
  Activity: 76%
